Assay: log P by HPLC
Assay type: physicochemical
Details: EEC directive 79/831 Annex V. A8 by HPLC (gradient method, acetonitrile/0.1% aqueous phosphoric acid)

| SMILES | logP |
| --- | --- |
| Cc1nc2nc(Cl)c(-c3ccccc3Cl)c(NCC#N)n2n1 [compound 403] | 2.03 |
| CCN(Cc1ccco1)c1c(-c2ccccc2Cl)c(Cl)nc2nc(C)nn12 [compound 404] | 3.56 |
| Cc1nc2nc(Cl)c(-c3ccc(F)cc3F)c(NC3CCCC3)n2n1 [compound 405] | 3.24 |
| Cc1nc2nc(Cl)c(-c3ccc(F)cc3F)c(NCC(F)(F)F)n2n1 [compound 406] | 2.68 |
| CC(=O)CC(C)(C)Nc1c(-c2ccc(F)cc2F)c(Cl)nc2nc(C)nn12 [compound 407] | 2.53 |
| Cc1nc2nc(Cl)c(-c3ccc(F)cc3F)c(NC3CCCCC3C(F)(F)F)n2n1 (centres unmarked) [compound 408] | 3.56 |
| Cc1nc2nc(Cl)c(-c3ccc(F)cc3F)c(NC3CCC(C(F)(F)F)CC3)n2n1 (centres unmarked) [compound 409] | 3.56 |
| CCOC(=O)CN(C)c1c(-c2ccc(F)cc2F)c(Cl)nc2nc(C)nn12 [compound 410] | 2.8 |
| Cc1nc2nc(Cl)c(-c3ccc(F)cc3F)c(N(C)CCC#N)n2n1 [compound 411] | 2.34 |
| Cc1nc2nc(Cl)c(-c3ccc(F)cc3F)c(N(C)CC#N)n2n1 [compound 412] | 2.34 |
| CCN(CCC#N)c1c(-c2ccc(F)cc2F)c(Cl)nc2nc(C)nn12 [compound 413] | 2.58 |
| CCOC(=O)CN(c1c(-c2ccc(F)cc2F)c(Cl)nc2nc(C)nn12)C1CC1 [compound 414] | 3.29 |
| Cc1nc2nc(Cl)c(-c3ccc(F)cc3F)c(N3CCC(O)C3)n2n1 (centres unmarked) [compound 415] | 1.95 |
| CCCN(CCOC)c1c(-c2ccccc2Cl)c(Cl)nc2nc(C)nn12 [compound 416] | 3.36 |
| C=CC(C)Nc1c(-c2c(F)cc(F)cc2F)c(Cl)nc2nc(C)nn12 (centres unmarked) [compound 417] | 2.85 |
| Cc1nc2nc(Cl)c(-c3c(F)cccc3F)c(N(C)C)n2n1 [compound 418] | 2.37 |
| CCNc1c(-c2c(F)cccc2F)c(Cl)nc2nc(C)nn12 [compound 419] | 2.31 |
| Cc1nc2nc(Cl)c(-c3c(F)cccc3F)c(NCC#N)n2n1 [compound 420] | 1.91 |
| Cc1nc2nc(Cl)c(-c3c(F)cccc3F)c(NC(C)(C)C(F)(F)F)n2n1 [compound 421] | 3.34 |
| CNc1c(-c2c(F)cccc2F)c(Cl)nc2nc(C)nn12 [compound 422] | 2.03 |
| Cc1nc2nc(Cl)c(-c3c(F)cccc3F)c(N3CCCCC3C(F)(F)F)n2n1 (centres unmarked) [compound 423] | 3.33 |

| SMILES | logP |
| --- | --- |
| Cc1nc2nc(Cl)c(-c3c(F)cccc3F)c(NCC(F)(F)F)n2n1 [compound 424] | 2.56 |
| Cc1nc2nc(Cl)c(-c3c(F)cccc3F)c(NC3CCCCC3C(F)(F)F)n2n1 (centres unmarked) [compound 425] | 3.52 |
| Cc1nc2nc(Cl)c(-c3c(F)cccc3F)c(N(O)C(C)C)n2n1 [compound 426] | 2.52 |
| Cc1nc2nc(Cl)c(-c3c(F)cccc3F)c(NOCc3ccccc3)n2n1 [compound 427] | 2.93 |
| Cc1nc2nc(Cl)c(-c3c(F)cccc3F)c(NOCc3cc(Cl)cc(Cl)c3)n2n1 [compound 428] | 3.75 |
| Cc1nc2nc(Cl)c(-c3c(F)cccc3F)c(NOCc3ccc(Cl)cc3Cl)n2n1 [compound 429] | 3.69 |
| Cc1nc2nc(Cl)c(-c3c(F)cccc3F)c(NOCc3ccc(C(F)(F)F)cc3)n2n1 [compound 430] | 3.44 |
| Cc1nc2nc(Cl)c(-c3c(F)cccc3F)c(NOCc3ccccc3Cl)n2n1 [compound 431] | 3.13 |
| Cc1nc2nc(Cl)c(-c3c(F)cccc3F)c(NOCc3ccc(F)cc3)n2n1 [compound 432] | 2.9 |
| Cc1nc2nc(Cl)c(-c3c(F)cccc3F)c(NOCc3cccc(C(F)(F)F)c3)n2n1 [compound 433] | 3.41 |
| CCCCONc1c(-c2c(F)cccc2F)c(Cl)nc2nc(C)nn12 [compound 434] | 2.96 |
| Cc1nc2nc(Cl)c(-c3c(F)cccc3F)c(NOCc3c(Cl)cccc3Cl)n2n1 [compound 435] | 3.31 |
| CONc1c(-c2c(F)cccc2F)c(Cl)nc2nc(C)nn12 [compound 436] | 2.07 |
| Cc1nc2nc(Cl)c(-c3ccccc3Cl)c(NC(C)C(F)(F)F)n2n1 (centres unmarked) [compound 437] | 3.1 |
| Cc1nc2nc(F)c(-c3ccccc3Cl)c(NC(C)C(F)(F)F)n2n1 (centres unmarked) [compound 438] | 2.97 |
| Cc1nc2nc(Cl)c(-c3c(F)cc(F)cc3F)c(NC3CC3F)n2n1 (centres unmarked) [compound 439] | 2.3 |
| CCOC(=O)CN(c1c(-c2c(F)cccc2F)c(Cl)nc2nc(C)nn12)C1CC1 [compound 440] | 3 |
| Cc1nc2nc(Cl)c(-c3c(F)cccc3F)c(N3CCC(N)C3)n2n1 (centres unmarked) [compound 441] | 1.19 |
| CC(=O)C1CCN(c2c(-c3c(F)cccc3F)c(Cl)nc3nc(C)nn23)CC1 [compound 442] | 2.49 |
| Cc1nc2nc(Cl)c(-c3c(F)cccc3F)c(N3CCC(F)CC3)n2n1 [compound 443] | 2.85 |
| Cc1ccc(Nc2c(-c3c(F)cccc3F)c(Cl)nc3nc(C)nn23)cc1 [compound 444] | 3.01 |

| SMILES | logP |
| --- | --- |
| Cc1nc2nc(Cl)c(-c3c(F)cccc3F)c(Nc3ccc(F)cc3)n2n1 [compound 445] | 2.71 |
| Cc1nc2nc(Cl)c(-c3c(F)cccc3F)c(N3CCCc4ccccc43)n2n1 [compound 446] | 3.34 |
| C=C(C)CN(CC)c1c(-c2ccccc2Cl)c(Cl)nc2nc(C3CC3)nn12 [compound 447] | 4.59 |
| C=C(C)CN(CC)c1c(-c2c(F)cc(F)cc2F)c(Cl)nc2nc(C3CC3)nn12 [compound 448] | 4.49 |
| C=C(C)CN(CC)c1c(-c2c(F)cccc2Cl)c(Cl)nc2nc(C3CC3)nn12 [compound 449] | 4.61 |
| CC(=O)NC1CCN(c2c(-c3ccc(F)cc3F)c(Cl)nc3nc(C)nn23)C1 (centres unmarked) [compound 450] | 1.73 |
| Cc1nc2nc(Cl)c(-c3ccc(F)cc3F)c(N3CC(C)CC(C)C3)n2n1 (centres unmarked) [compound 451] | 4.16 |
| Cc1nc2nc(Cl)c(-c3ccc(F)cc3F)c(N3CCCC(O)C3)n2n1 (centres unmarked) [compound 452] | 2.2 |
| COC(=O)C1CCCCN1c1c(-c2ccc(F)cc2F)c(Cl)nc2nc(C)nn12 (centres unmarked) [compound 453] | 3.36 |
| Cc1nc2nc(Cl)c(-c3ccc(F)cc3F)c(N3CCC(F)CC3)n2n1 [compound 454] | 2.96 |
| Cc1nc2nc(Cl)c(-c3ccc(F)cc3F)c(N3CC(C)OC(C)C3)n2n1 (centres unmarked) [compound 455] | 2.94 |
| Cc1cccc(Nc2c(-c3ccc(F)cc3F)c(Cl)nc3nc(C)nn23)c1 [compound 456] | 3 |
| CC(Nc1c(-c2c(F)cccc2Cl)c(Cl)nc2nc(C3CC3)nn12)C(F)(F)F (centres unmarked) [compound 457] | 3.59 |
| CC(Nc1c(-c2c(F)cc(F)cc2F)c(Cl)nc2nc(C3CC3)nn12)C(F)(F)F (centres unmarked) [compound 458] | 3.58 |
| CC(C)CNc1c(-c2c(F)cc(F)cc2F)c(Cl)nc2nc(C3CC3)nn12 [compound 460] | 3.69 |
| CC(C)(C)CNc1c(-c2c(F)cc(F)cc2F)c(Cl)nc2nc(C3CC3)nn12 [compound 461] | 4.19 |
| CCC(C)Nc1c(-c2c(F)cc(F)cc2F)c(Cl)nc2nc(C3CC3)nn12 (centres unmarked) [compound 462] | 3.69 |
| Fc1cc(F)c(-c2c(Cl)nc3nc(C4CC4)nn3c2NC2CCCC2)c(F)c1 [compound 463] | 3.9 |
| CC(C)Nc1c(-c2c(F)cc(F)cc2F)c(Cl)nc2nc(C3CC3)nn12 [compound 464] | 3.35 |
| Fc1cc(F)c(-c2c(Cl)nc3nc(C4CC4)nn3c2NCC2CC2)c(F)c1 [compound 465] | 3.43 |
| C=C(C)CNc1c(-c2c(F)cc(F)cc2F)c(Cl)nc2nc(C3CC3)nn12 [compound 466] | 3.34 |

| SMILES | logP |
| --- | --- |
| CC(C)CN(C)c1c(-c2c(F)cc(F)cc2F)c(Cl)nc2nc(C3CC3)nn12 [compound 467] | 4.36 |
| COCCN(C)c1c(-c2c(F)cc(F)cc2F)c(Cl)nc2nc(C3CC3)nn12 [compound 468] | 3.29 |
| C=C(C)CN(C)c1c(-c2c(F)cc(F)cc2F)c(Cl)nc2nc(C3CC3)nn12 [compound 469] | 4.27 |
| CCN(CCOC)c1c(-c2c(F)cc(F)cc2F)c(Cl)nc2nc(C3CC3)nn12 [compound 470] | 3.64 |
| CC1CCCN1c1c(-c2c(F)cc(F)cc2F)c(Cl)nc2nc(C3CC3)nn12 (centres unmarked) [compound 471] | 3.9 |
| Fc1cc(F)c(-c2c(Cl)nc3nc(C4CC4)nn3c2N2CCCC2)c(F)c1 [compound 472] | 3.52 |
| CC1CCN(c2c(-c3c(F)cc(F)cc3F)c(Cl)nc3nc(C4CC4)nn23)CC1 [compound 473] | 4.66 |
| Fc1cc(F)c(-c2c(Cl)nc3nc(C4CC4)nn3c2N2CCCCC2)c(F)c1 [compound 474] | 4.22 |
| Fc1cc(F)c(-c2c(Cl)nc3nc(C4CC4)nn3c2N2CCOCC2)c(F)c1 [compound 475] | 3.02 |
| CC(C)CNc1c(-c2c(F)cccc2Cl)c(Cl)nc2nc(C3CC3)nn12 [compound 476] | 3.64 |
| CC(C)(C)CNc1c(-c2c(F)cccc2Cl)c(Cl)nc2nc(C3CC3)nn12 [compound 477] | 4.08 |
| CCC(C)Nc1c(-c2c(F)cccc2Cl)c(Cl)nc2nc(C3CC3)nn12 (centres unmarked) [compound 478] | 3.66 |
| Fc1cccc(Cl)c1-c1c(Cl)nc2nc(C3CC3)nn2c1NC1CCCC1 [compound 479] | 3.83 |
| Fc1cccc(Cl)c1-c1c(Cl)nc2nc(C3CC3)nn2c1NCC(F)(F)F [compound 481] | 3.19 |
| Fc1cccc(Cl)c1-c1c(Cl)nc2nc(C3CC3)nn2c1NCC1CC1 [compound 482] | 3.4 |
| C=C(C)CNc1c(-c2c(F)cccc2Cl)c(Cl)nc2nc(C3CC3)nn12 [compound 483] | 3.31 |
| Clc1ccccc1-c1c(Cl)nc2nc(C3CC3)nn2c1N1CCCCO1 [compound 484] | 3.71 |
| Fc1cc(F)c(-c2c(Cl)nc3nc(C4CC4)nn3c2N2CCCCO2)c(F)c1 [compound 485] | 3.74 |
| Fc1cccc(Cl)c1-c1c(Cl)nc2nc(C3CC3)nn2c1N1CCCCO1 [compound 486] | 3.74 |
| Fc1cc(F)c(-c2c(Cl)nc3nc(C4CC4)nn3c2N2CCCCN2)c(F)c1 [compound 487] | 3.42 |

Source: US7186831B2, “5-halo-2-alkyl[1,2,4]triazolo[1,5-a]pyrimidin-7-amines” (priority 2001, dated 2007)
